# Results: ChEMBL document CHEMBL5136978, “Research progress in pharmacological activities and structure-activity relationships of tetralone scaffolds as pharmacophore and fluorescent skeleton” (Eur J Med Chem, 2022)
# Key:
# A-431 = assay: Antiproliferative activity against human A-431 cells assessed as cell growth inhibition incubated for 48 hrs by methylene blue staining based colorimetric assay; type: functional; settings: A-431, 48 h
# Acetylcholinesterase [1] = target: T1, Acetylcholinesterase (Homo sapiens, UniProt P22303); assay: Inhibition of AChE (unknown origin) using […] preincubated for 15 mins by Ellman's method
# T1 sequence (P22303 whole entry): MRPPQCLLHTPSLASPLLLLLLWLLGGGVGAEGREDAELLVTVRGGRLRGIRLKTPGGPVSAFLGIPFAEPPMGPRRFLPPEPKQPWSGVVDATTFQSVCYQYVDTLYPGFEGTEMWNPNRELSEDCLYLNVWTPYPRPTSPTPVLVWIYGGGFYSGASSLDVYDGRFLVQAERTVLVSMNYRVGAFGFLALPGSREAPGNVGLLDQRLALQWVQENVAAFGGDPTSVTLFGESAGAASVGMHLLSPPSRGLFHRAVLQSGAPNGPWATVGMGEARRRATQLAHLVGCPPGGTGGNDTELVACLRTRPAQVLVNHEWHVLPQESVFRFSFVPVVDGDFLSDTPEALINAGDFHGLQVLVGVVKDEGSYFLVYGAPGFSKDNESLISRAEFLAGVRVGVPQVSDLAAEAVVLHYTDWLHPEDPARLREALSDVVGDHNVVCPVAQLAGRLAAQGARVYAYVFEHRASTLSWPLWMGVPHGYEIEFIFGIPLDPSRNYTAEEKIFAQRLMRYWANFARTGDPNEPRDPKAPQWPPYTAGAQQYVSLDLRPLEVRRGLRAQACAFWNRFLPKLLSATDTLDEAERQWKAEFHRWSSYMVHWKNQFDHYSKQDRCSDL
# [2] = target: T2, Peroxisome proliferator-activated receptor gamma (Homo sapiens, UniProt P37231); assay: Displacement of isotopically-labeled PPAR-gamma (unknown origin) assessed as inhibition constant by competitive inhibition assay
# T2 sequence (P37231 whole entry): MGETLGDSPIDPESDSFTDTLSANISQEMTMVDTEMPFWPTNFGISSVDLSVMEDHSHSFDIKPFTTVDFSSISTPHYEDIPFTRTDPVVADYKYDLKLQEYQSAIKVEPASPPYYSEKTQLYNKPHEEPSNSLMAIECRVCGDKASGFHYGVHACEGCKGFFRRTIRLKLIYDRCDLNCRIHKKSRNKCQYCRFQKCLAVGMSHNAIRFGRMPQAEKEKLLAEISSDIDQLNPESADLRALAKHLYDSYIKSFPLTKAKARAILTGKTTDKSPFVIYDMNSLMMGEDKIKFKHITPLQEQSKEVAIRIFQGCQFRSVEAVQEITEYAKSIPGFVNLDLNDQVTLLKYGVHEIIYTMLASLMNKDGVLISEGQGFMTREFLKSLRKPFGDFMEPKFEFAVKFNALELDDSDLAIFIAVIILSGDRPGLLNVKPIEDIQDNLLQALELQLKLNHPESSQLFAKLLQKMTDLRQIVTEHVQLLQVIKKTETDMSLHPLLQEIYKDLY
# Homo sapiens [3] = species: Homo sapiens; assay: Selectivity index, ratio of IC50 for recombinant human MAO-A to IC50 for recombinant human MAO-B
# KB = assay: Cytotoxicity aginst human KB cells assessed as cell growth inhibition; type: functional, cell-based
# Staphylococcus aureus [4] = assay: Antibacterial activity against methicillin-resistant Staphylococcus aureus ATCC 33591 assessed as bacterial growth inhibition by CLSI based protocol; type: functional, organism-based
# Staphylococcus aureus [5] = assay: Antibacterial activity against Staphylococcus aureus ATCC 29213 assessed as bacterial growth inhibition by CLSI based protocol; type: functional, organism-based
# Fusarium oxysporum = assay: Antifungal activity against Fusarium oxysporum assessed as fungal growth inhibition; type: functional, organism-based
# Fusarium solani = assay: Antifungal activity against Fusarium solani assessed as fungal growth inhibition; type: functional, organism-based
# Cholinesterase = Cholinesterase (Homo sapiens, UniProt P06276)
# Chain of Cholinesterase (P06276 whole entry): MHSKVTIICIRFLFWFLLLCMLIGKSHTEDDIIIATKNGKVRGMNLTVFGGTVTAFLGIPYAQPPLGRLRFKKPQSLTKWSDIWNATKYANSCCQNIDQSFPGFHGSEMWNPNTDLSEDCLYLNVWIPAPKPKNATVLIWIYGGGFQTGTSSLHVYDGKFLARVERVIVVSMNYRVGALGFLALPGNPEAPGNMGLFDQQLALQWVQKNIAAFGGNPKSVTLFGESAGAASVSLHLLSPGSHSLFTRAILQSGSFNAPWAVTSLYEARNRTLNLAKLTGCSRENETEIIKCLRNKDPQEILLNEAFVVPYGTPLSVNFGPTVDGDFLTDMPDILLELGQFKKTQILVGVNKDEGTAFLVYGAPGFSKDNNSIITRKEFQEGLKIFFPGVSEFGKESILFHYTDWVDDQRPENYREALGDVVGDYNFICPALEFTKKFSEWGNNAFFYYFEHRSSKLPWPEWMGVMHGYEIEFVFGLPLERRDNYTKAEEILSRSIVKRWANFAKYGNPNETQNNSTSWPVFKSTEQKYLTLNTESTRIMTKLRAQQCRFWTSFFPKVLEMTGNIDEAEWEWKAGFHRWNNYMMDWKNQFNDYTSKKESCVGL
# Description: Inhibition of BuChE (unknown origin) using acetylthiocholine iodide as substrate incubated for 5 mins by Ellman's method
# [6] = target: T3, Amine oxidase [flavin-containing] A (Bos taurus, UniProt P21398)
# T3 sequence (P21398 whole entry): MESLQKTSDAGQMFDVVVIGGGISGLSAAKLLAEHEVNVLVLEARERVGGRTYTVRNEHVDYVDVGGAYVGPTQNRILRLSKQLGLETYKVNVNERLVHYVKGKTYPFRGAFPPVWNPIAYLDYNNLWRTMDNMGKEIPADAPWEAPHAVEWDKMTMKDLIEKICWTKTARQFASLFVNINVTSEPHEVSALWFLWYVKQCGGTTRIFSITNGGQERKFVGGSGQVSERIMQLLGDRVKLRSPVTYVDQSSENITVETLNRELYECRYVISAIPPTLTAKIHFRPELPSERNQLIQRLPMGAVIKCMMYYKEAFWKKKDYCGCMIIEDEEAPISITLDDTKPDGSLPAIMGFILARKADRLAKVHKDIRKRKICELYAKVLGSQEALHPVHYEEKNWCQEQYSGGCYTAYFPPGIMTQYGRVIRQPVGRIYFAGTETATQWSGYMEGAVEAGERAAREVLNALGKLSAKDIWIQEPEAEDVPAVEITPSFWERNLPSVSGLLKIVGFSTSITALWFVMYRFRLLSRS
# Description: Inhibition of recombinant bovine mitochondrial MAO-A using benzylamine or serotonin as substrate incubated for 60 mins by fluorimetry assay
# [7] = Inhibition of recombinant bovine mitochondrial MAO-B using benzylamine or serotonin as substrate incubated for 60 mins by fluorimetry assay; parameters: species or system Bos taurus
# Acetylcholinesterase [8] = target: T1, Acetylcholinesterase; assay: Inhibition of AChE (unknown origin) using acetylthiocholine iodide as substrate incubated for 5 mins by Ellman's method
# Escherichia coli = assay: Antibacterial activity against Escherichia coli MTCC 443 assessed as bacterial growth inhibition; type: functional
# Staphylococcus aureus [9] = assay: Antibacterial activity against Staphylococcus aureus MTCC 096 assessed as bacterial growth inhibition; type: functional
# Aspergillus niger = assay: Antifungal activity against Aspergillus niger MTCC 343 assessed as fungal growth inhibition; type: functional
# Rattus norvegicus [10] = species: Rattus norvegicus; assay: Selectivity index, ratio of Ki for A2AAR in rat striatal membrane to Ki for A1AR in rat whole brain membrane; type: cell membranes
# MCF7 = assay: Antiproliferative activity against human MCF7 cells assessed as cell growth inhibition measured after 5 days by Coulter counter method; type: functional, cell-based; settings: MCF7, 120 h
# Homo sapiens [11] = species: Homo sapiens; assay: Selectivity index, ratio of IC50 for MAO-A (unknown origin) to IC50 for MAO-B (unknown origin)
# [12] = target: T4, Amine oxidase [flavin-containing] A (Homo sapiens, UniProt P21397); assay: Inhibition of MAO-A (unknown origin)
# T4 sequence (P21397 whole entry): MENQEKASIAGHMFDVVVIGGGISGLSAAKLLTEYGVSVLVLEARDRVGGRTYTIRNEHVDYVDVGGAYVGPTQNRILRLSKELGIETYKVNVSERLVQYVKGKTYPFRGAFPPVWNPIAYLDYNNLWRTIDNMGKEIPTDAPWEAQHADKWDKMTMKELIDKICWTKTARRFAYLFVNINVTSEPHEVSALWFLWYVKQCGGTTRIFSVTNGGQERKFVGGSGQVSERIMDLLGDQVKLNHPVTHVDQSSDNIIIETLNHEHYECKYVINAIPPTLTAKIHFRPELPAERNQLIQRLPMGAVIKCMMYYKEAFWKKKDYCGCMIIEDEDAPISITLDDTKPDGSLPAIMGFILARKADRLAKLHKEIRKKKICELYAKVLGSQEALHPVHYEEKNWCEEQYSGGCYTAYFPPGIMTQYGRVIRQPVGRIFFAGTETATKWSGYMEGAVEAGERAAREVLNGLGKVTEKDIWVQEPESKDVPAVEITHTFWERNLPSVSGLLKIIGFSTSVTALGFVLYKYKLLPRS
# Rattus norvegicus [13] = species: Rattus norvegicus; assay: Selectivity index, ratio of Ki for A2AAR in rat striata to Ki for A1AR in rat whole brain
structure (smiles),measurement,setting,value
O=C1/C(=C/c2cccnc2)CCc2ccccc21,IC50,A-431,< 10 µM
O=C1CC(O)C(O)c2c(O)cccc21 (stereo not drawn),IC50,Acetylcholinesterase [1],1410 µM
CC1(C)C=Cc2cc3c(cc2O1)C[C@H](c1ccc(O)cc1)CC3=O,Ki,[2],4.9 µM
Cc1ccc(COc2ccc3c(c2)C(=O)CCC3)cc1,Ratio IC50,Homo sapiens [3],195
C[C@@H]1Oc2cccc3c2[C@@H](O1)[C@H](O)CC3=O,IC50,KB; kb,1 ppm
O=C1CC[C@H](O)c2c(O)ccc(O)c21,IC50,Staphylococcus aureus [4],3460 µg/mL
same,MIC,Staphylococcus aureus [4],5000 µg/mL
same,IC50,Staphylococcus aureus [5],4960 µg/mL
same,MIC,Staphylococcus aureus [5],10000 µg/mL
CC1(C)C=Cc2cc3c(cc2O1)C[C@H](c1ccc(O)c(O)c1)CC3=O,Ki,[2],5.8 µM
same,IC50,"KB; Homo sapiens, KB, read-out: IC50",1.4 µM
O=C1C[C@@H](O)Cc2cc(O)c(O)cc21,EC50,Fusarium oxysporum,413 µg/mL
same,EC50,Fusarium solani,48.5 µg/mL
COc1ccc(/C=C2\CCc3cc([N+](=O)[O-])ccc3C2=O)c(Cl)c1OC,IC50,Cholinesterase,17.5 µM
same,IC50,[6],1.24 µM
same,IC50,[7],2.9 µM
same,IC50,Acetylcholinesterase [8],2.92 µM
CC1SC(N2N=C3c4ccccc4CC[C@H]3[C@H]2c2ccc(Cl)cc2)=NC1=O (stereo partly drawn),MIC,Escherichia coli,12.5 µg/mL
same,MIC,Staphylococcus aureus [9],12.5 µg/mL
same,MIC,Aspergillus niger,12.5 µg/mL
C=C(C)C1Cc2cc3c(cc2C1)C(=O)C[C@@H](c1ccc(O)c(O)c1)C3 (stereo partly drawn),Ki,[2],4.7 µM
COc1ccc(/C=C2\CCc3c(O)cccc3C2=O)cc1OC,Ratio Ki,Rattus norvegicus [10],1.03
O=C1/C(=C/c2ccncc2)CCc2ccccc21,IC50,A-431,< 10 µM
COc1ccc2c(c1)CCc1c(-c3ccc(F)cc3)n[nH]c1-2,IC50,MCF7,1.5 µM
COc1ccc([C@@H]2CC(=O)c3cc4c(cc3C2)OC(C)(C)C=C4)cc1O,Ki,[2],17.9 µM
O=C1/C(=C/c2ccc(Cl)c(Cl)c2)CCc2ccc(O)cc21,Ratio IC50,Homo sapiens [11],280
same,IC50,[12],1.79 µM
Nc1ncc(/C=C2\CCc3c(O)cccc3C2=O)cn1,Ratio Ki,Rattus norvegicus [13],0.14
COc1ccc2c(c1)CC[C@@H]1C2=NN(C2=NC(=O)C(C)S2)[C@@H]1c1ccc(Cl)cc1 (stereo partly drawn),MIC,Escherichia coli,12.5 µg/mL
same,MIC,Staphylococcus aureus [9],12.5 µg/mL
same,MIC,Aspergillus niger,12.5 µg/mL
COc1cc2c(cc1OC)C(=O)C(CC1CCN(Cc3ccccc3)CC1)C2 (stereo not drawn) [DONEPEZIL],IC50,[6],828 µM
O=C1/C(=C/c2ccccc2)CCc2ccccc21,IC50,A-431,< 10 µM
